Results from patent publication US6576662B2, “Compounds having anticancer activity : process for their preparation and pharmaceutical compositions containing them” (Dr. Reddy's Laboratories Limited, priority 2000, dated 2003).
Where two headings read alike, the source gives them in different places.

Legend:
Human lymphocytes = assay: Lymphocyte proliferation, tritiated thymidine incorporation; assay type: cell-based; conditions: Concentration 1 μM; human lymphocytes with Phytohemagglutitin A
Procedure: Human lymphocytes were isolated from whole blood by using Ficoll Hypaque Plus (Amersham). On day one, 1 million lymphocytes were seeded into each well of 96 well plate in 100 μL volume of RPMI 1640 medium containing 10% FCS and Phytohemagglutitin A at 1 μg/well concentration. Plates were incubated at 37° C. in CO2 incubator for 24 h. Test compounds at various concentrations were added to test wells and only medium with vehicle was added to control wells. After 48 h of incubation […] of tritiated thymidine was added to each well. After 24 h of thymidine addition the cells were harvested and the incorporated radioactivity was determined. Stimulation Index (SI) was calculated using the formula, [formula]
A^T=Average CPM of treated wells,
A^C=Average CPM of control wells.

U251 = assay: in vitro anti-cancer screen, Sulforhodamine B method; assay type: cell-based, human; conditions: CNS: U251, 48 h incubation, read-out: GROWTH INHIBITION (GI 50)
Procedure: (§1) Each test compound was screened against a battery of cell lines representing eight different types of cancers. In a typical procedure, 1×10^4 cells were seeded into each well of 96 well plate in 100 μL volume of RPMI 1640 medium containing antibiotics and 10% FCS.
(§2) The plates were incubated at 37° C. in presence of CO2. After 24 h, test compounds were evaluated at five 10 fold dilutions ranging from 100 to 0.01 μM. To each test well 100 μL of test compound solution was added and medium with vehicle was added to control wells and the plates were further incubated. After 48 h of incubation, plates were terminated by Sulforhodamine B method.
(§3) The optical density which is proportional to protein mass, is then-read by automated spectrophotometric plate reader at a wavelength of 515 nm.

MCF7 = assay: as above; assay type: cell-based, human; conditions: BREAST: MCF7, 48 h incubation, read-out: GROWTH INHIBITION (GI 50)
Procedure: as §1, §2, §3

A498 = assay: as above; assay type: cell-based, human; conditions: RENAL: A498, 48 h incubation, read-out: GROWTH INHIBITION (GI 50)
Procedure: as §1, §2, §3

SKOV-3 = assay: as above; assay type: cell-based, human; conditions: OVARIAN: SKOV-3, 48 h incubation, read-out: GROWTH INHIBITION (GI 50)
Procedure: as §1, §2, §3

SW-620 = assay: as above; assay type: cell-based, human; conditions: COLON: SW-620, 48 h incubation, read-out: GROWTH INHIBITION (GI 50)
Procedure: as §1, §2, §3

MCF-7/ADR = assay: as above; assay type: cell-based, human; conditions: BREAST: MCF-7/ADR, 48 h incubation, read-out: GROWTH INHIBITION (GI 50)
Procedure: as §1, §2, §3

HT29 = assay: as above; assay type: cell-based, human; conditions: COLON: HT29, 48 h incubation, read-out: GROWTH INHIBITION (GI 50)
Procedure: as §1, §2, §3

PA1 = assay: as above; assay type: cell-based, human; conditions: OVARIAN: PA1, 48 h incubation, read-out: GROWTH INHIBITION (GI 50)
Procedure: as §1, §2, §3

UACC62 = assay: as above; assay type: cell-based, human; conditions: MELANOMA: UACC62, 48 h incubation, read-out: GROWTH INHIBITION (GI 50)
Procedure: as §1, §2, §3

H522 = assay: as above; assay type: cell-based, human; conditions: LUNG: H522, 48 h incubation, read-out: GROWTH INHIBITION (GI 50)
Procedure: as §1, §2, §3

Molecule: C=C1CCC2[C@]3(C)COC(C)(C)OC3CC[C@]2(C)[C@H]1CC(NC(Cc1ccccc1)C(=O)OC)C1=CCOC1=O (some centres unmarked) [Example 20, 14-Deoxy-3,19-O-isopropylidene-12-(methylphenylalanino)andrographolide]
- melting point: 57 °C

Molecule: C=C1CCC2[C@](C)(CO)[C@H](O)CC[C@]2(C)[C@H]1CC([Se]c1ccccc1)C1=CCOC1=O (some centres unmarked)
- melting point: 186 °C

Molecule: C=C1CCC2[C@]3(C)COC(C)(C)OC3CC[C@]2(C)[C@H]1CC(Nc1cccc(C)c1C)C1=CCOC1=O (some centres unmarked) [Example 38, 14-Deoxy-3,19-O-isopropylidene-12-(2,3-dimethylanilino)andrographolide]
- melting point: 192.5 °C

Molecule: C=C1CCC2[C@](C)(CO)[C@H](O)CC[C@]2(C)[C@H]1CC(Nc1cc[nH]c(=O)n1)C1=CCOC1=O (some centres unmarked) [Example 49, 14-Deoxy-12-[N-(1,2-dihydro-2-pyrimidinone)amino]andrographolide]
- melting point: 163 °C

Molecule: C=C1CCC2C(C)(COC(C)=O)C(OC(C)=O)CCC2(C)C1CC(NC(CC[Se]C)C(=O)OC)C1=CCOC1=O (centres unmarked) [Example 12, 3,19-Diacetyl-14-deoxy-12-(O-methylselenomethionino)andrographolide]
- Stimulation Index (SI) (Human lymphocytes): 40

Molecule: C=C1CCC2[C@]3(C)COC(c4ccccc4)OC3CC[C@]2(C)[C@H]1CC(Sc1ccccc1)C1=CCOC1=O (some centres unmarked) [Example 69, 3,19-O-Benzylidene-14-deoxy-12-phenylthio andrographolide]
- melting point: 74 to 76 °C

Molecule: CCC(=O)OC[C@@]1(C)C2CC[C@]3(CO3)[C@H](CC(OC(=O)CNC(=O)OC(C)(C)C)C3=CCOC3=O)[C@@]2(C)CC[C@H]1OC(=O)CC (some centres unmarked) [Example 77, 12-(N-Bocglycinyloxy)-14-deoxy-8,17-epoxy-3,19-dipropionyl andrographolide]
- melting point: 80 °C

Molecule: C[C@]1(CO)C2CC[C@]3(CO3)[C@H](CC(Sc3ccccc3)C3=CCOC3=O)[C@@]2(C)CC[C@H]1O (some centres unmarked) [Example 54, 14-Deoxy-8,17-epoxy-12-phenylthio andrographolide]
- melting point: 90 °C

Molecule: C=C1CCC2[C@](C)(CO)[C@H](O)CC[C@]2(C)[C@H]1CC(Sc1ccccc1)C1=CCOC1=O (some centres unmarked) [Example 63, 14-Deoxy-12-phenylthio andrographolide]
- Stimulation Index (SI) (Human lymphocytes): 59
- melting point: 105 °C

Molecule: C=C1CCC2[C@]3(C)COC(C)(c4ccccc4)OC3CC[C@]2(C)[C@H]1CC(SCC)C1=CCOC1=O (some centres unmarked) [Example 68, 14-Deoxy-3,19-O-(1-phenylethylidene)-12-ethylthio andrographolide]
- melting point: 122.5 to 125 °C

Molecule: C=C1CCC2[C@]3(C)COC(c4ccccc4)OC3CC[C@]2(C)[C@H]1CC(NCc1ccccc1)C1=CCOC1=O (some centres unmarked) [Example 24, 3,19-O-Benzylidene-12-(N-benzylamino)-14-deoxy andrographolide]
- melting point: 172 to 173 °C

Molecule: C=C1CCC2[C@](C)(CO)[C@H](O)CC[C@]2(C)[C@H]1CC(C1=CCOC1=O)n1ccc(=O)[nH]c1=O (some centres unmarked) [Example 50, 14-Deoxy-12-(N^1-uracil)andrographolide]
- melting point: 164 °C

Molecule: C=C1CCC2[C@]3(C)COC(c4ccccc4)OC3CC[C@]2(C)[C@H]1CC(Nc1cccc(C)c1C)C1=CCOC1=O (some centres unmarked) [Example 40, 3,19-O-Benzylidene-14-deoxy-12-(2,3-dimethylanilino)andrographolide]
- melting point: 118 °C

Molecule: C=C1CCC2[C@](C)(CO)[C@H](O)CC[C@]2(C)[C@H]1CC(Nc1cccc(C)c1C)C1=CCOC1=O (some centres unmarked) [Example 28, 1-(2,3-Dimethylanilino)-14-deoxy andrographolide]
- Stimulation Index (SI) (Human lymphocytes): 40

Molecule: C=C1CCC2[C@](C)(CO)[C@H](O)CC[C@]2(C)[C@H]1CC(C1=CCOC1=O)n1cc(I)c(=O)[nH]c1=O (some centres unmarked) [Example 53, 14-Deoxy-12-[N^1-(5-iodouracil)]andrographolide]
- melting point: 187 to 188 °C

Molecule: C=C1CCC2[C@](C)(COC(C)=O)C(OC(C)=O)CC[C@]2(C)[C@H]1CC(OC(C)=O)C1=CCOC1=O (some centres unmarked) [Example 74, 12-Acetoxy-3,19-diacetyl-14-deoxy andrographolide]
- melting point: 152.7 °C

Molecule: C=C1CCC2[C@](C)(CO)[C@H](O)CC[C@]2(C)[C@H]1CC(C1=CCOC1=O)n1cc(Br)c(=O)[nH]c1=O (some centres unmarked) [Example 52, 14-Deoxy-12-[N^1-(5-bromouracil)]andrographolide]
- melting point: 185 °C

Molecule: 3,19-Diacetyl-14-deoxy-12-[N^1-(5-iodouracil)]andrographolide [Example 48]
- Stimulation Index (SI) (Human lymphocytes): 130
- GI50 (U251): 2000 nM
- GI50 (MCF7): 2000 nM
- GI50 (A498): 3000 nM
- GI50 (SKOV-3): 3000 nM
- GI50 (SW-620): 4000 nM
- GI50 (MCF-7/ADR): 2000 nM
- GI50 (HT29): 4000 nM
- GI50 (PA1): 2000 nM
- GI50 (UACC62): 3000 nM
- GI50 (H522): 4000 nM

Molecule: C=C1CCC2[C@](C)(CO)C(O)CC[C@]2(C)[C@H]1CC(NC(C(=O)OC)c1ccccc1)C1=CCOC1=O (some centres unmarked) [Example 19, 14-Deoxy-12-(O-methylphenylglycino)andrographolide]
- melting point: 68 °C

Molecule: C=C1CCC2[C@]3(C)COC(C)(c4ccccc4)OC3CC[C@]2(C)[C@H]1CC(Sc1ccccc1)C1=CCOC1=O (some centres unmarked) [Example 67, 14-Deoxy-3,19-O-(1-phenylethylidene)-12-phenylthio andrographolide]
- melting point: 154.1 °C

Molecule: C=C1CCC2[C@]3(C)COC(C)(c4ccccc4)OC3CC[C@]2(C)[C@H]1CC(NC(C(=O)OC)c1ccccc1)C1=CCOC1=O (some centres unmarked) [Example 2, 14-Deoxy-12-(O-methylphenylglycino)-3,19-O-(1-phenylethylidene) androgrpaholide]
- melting point: 91 °C

Molecule: C=C1CCC2[C@](C)(CO)[C@H](O)CC[C@]2(C)[C@H]1CC(SCC)C1=CCOC1=O (some centres unmarked) [Example 64, 14-Deoxy-12-ethylthio andrographolide]
- melting point: 160 °C

Molecule: C=C1CCC2[C@]3(C)COC(C)(c4ccccc4)OC3CC[C@]2(C)[C@H]1CC(NCc1ccccc1)C1=CCOC1=O (some centres unmarked) [Example 21, 12-(N-Benzylamino)-14-deoxy-3,19-O-(1-phenylethylidene)andrographolide]
- Stimulation Index (SI) (Human lymphocytes): 16
- GI50 (U251; Homo sapiens, U-251): 2000 nM
- GI50 (MCF7; Homo sapiens): 3000 nM
- GI50 (A498; Homo sapiens): 2000 nM
- GI50 (SKOV-3; Homo sapiens, SK-OV-3): 2000 nM
- GI50 (SW-620; Homo sapiens): 2000 nM
- GI50 (MCF-7/ADR; Homo sapiens, NCI/ADR-RES): 1000 nM
- GI50 (HT29; Homo sapiens, HT-29): 3000 nM
- GI50 (PA1; Homo sapiens, PA-1): 2000 nM
- GI50 (UACC62; Homo sapiens, UACC-62): 2000 nM
- GI50 (H522; Homo sapiens, NCI-H522): 3000 nM
- melting point: 149.6 °C

Molecule: C=C1CCC2C(C)(COC(C)=O)C(OC(C)=O)CCC2(C)C1CC(NC(Cc1ccccc1)C(=O)OC)C1=CCOC1=O (centres unmarked) [Example 6, 3,19-Diacetyl-14-deoxy-12-(O-methylphenylalano)andrographolide]
- Stimulation Index (SI) (Human lymphocytes): 92

Molecule: C=C1CCC2[C@](C)(CO)C(O)CC[C@]2(C)[C@H]1CC(Nc1ccc(OC)c(OC)c1)C1=CCOC1=O (some centres unmarked) [Example 37, 14-Deoxy-12-(3,4-dimethoxyanilino)andrographolide]
- melting point: 225 to 230 °C
